≈ marks a conversion by molar mass, not a printed value. Bounds are passed on as bounds.

The first assay deals with Mycobacterium tuberculosis. Nature of the assay: Potency index, ratio of isoniazid MIC to compound MIC for antimycobacterial activity against isoniazid/rifampicin/ethambutol-resistant Mycobacterium tuberculosis. Format: functional.
Conditions: not given
As to `CO/N=C1/C(=O)N(CCCn2cc(CN3CCC[C@@H]4CN(c5c(F)cc6c(=O)c(C(=O)O)cn(C7CC7)c6c5OC)C[C@@H]43)nn2)c2ccc(F)cc21`, the Ratio was 2 - 2048.

The test system of another assay is Mycobacterium tuberculosis. Nature of the assay: Potency index, ratio of rifampicin MIC to compound MIC for antimycobacterial activity against isoniazid/rifampicin/ethambutol-resistant Mycobacterium tuberculosis.
Conditions: not given
Format: functional.
In the case of `CO/N=C1/C(=O)N(CCCn2cc(CN3CCC[C@@H]4CN(c5c(F)cc6c(=O)c(C(=O)O)cn(C7CC7)c6c5OC)C[C@@H]43)nn2)c2ccc(F)cc21`, the Ratio was 2 - 2048.

The test system of another assay is Mycobacterium tuberculosis. The experiment in a line: Potency index, ratio of moxifloxacin MIC to compound MIC for antimycobacterial activity against isoniazid/rifampicin/ethambutol-resistant Mycobacterium tuberculosis. Format: functional.
Conditions: not given
As to `CO/N=C1/C(=O)N(CCCn2cc(CN3CCC[C@@H]4CN(c5c(F)cc6c(=O)c(C(=O)O)cn(C7CC7)c6c5OC)C[C@@H]43)nn2)c2ccc(F)cc21`, the Ratio is 2 - 2048.

The subject of another assay is Mycobacterium tuberculosis. The experiment in a line: Antimycobacterial activity against isoniazid/rifampicin/ethambutol-resistant Mycobacterium tuberculosis after 3 days by rapid direct susceptibility test. Format: functional. The settings on record: 72 h.
`COc1c(N2C[C@@H]3CCCN[C@@H]3C2)c(F)cc2c(=O)c(C(=O)O)cn(C3CC3)c12` [MOXIFLOXACIN] had an MIC of 0.12 µg/mL (≈ 0.299 µM).

`COc1c(N2C[C@H]3CCCN(Cc4cn(CCCN5C(=O)/C(=N/O)c6ccccc65)nn4)[C@H]3C2)c(F)cc2c(=O)c(C(=O)O)cn(C3CC3)c12` came in with an MIC of 1 µg/mL (≈ 1.46 µM).

`CCO/N=C1/C(=O)N(CCCn2cc(CN3CCC[C@@H]4CN(c5c(F)cc6c(=O)c(C(=O)O)cn(C7CC7)c6c5OC)C[C@@H]43)nn2)c2ccccc21` had an MIC of 0.25 µg/mL (≈ 0.351 µM).

The molecule `COc1c(N2C[C@H]3CCCN(Cc4cn(CCCN5C(=O)C(=O)c6ccccc65)nn4)[C@H]3C2)c(F)cc2c(=O)c(C(=O)O)cn(C3CC3)c12` had an MIC of 1 µg/mL (≈ 1.49 µM).

Molecule `NNC(=O)c1ccncc1` [ISONIAZID] gave an MIC greater than 128 µg/mL.

Turning to `CO/N=C1/C(=O)N(CCCn2cc(CN3CCC[C@@H]4CN(c5c(F)cc6c(=O)c(C(=O)O)cn(C7CC7)c6c5OC)C[C@@H]43)nn2)c2ccc(C)cc21`, the MIC is 0.5 µg/mL (≈ 0.701 µM).

On to `CO/N=C1/C(=O)N(CCCn2cc(CN3CCC[C@@H]4CN(c5c(F)cc6c(=O)c(C(=O)O)cn(C7CC7)c6c5OC)C[C@@H]43)nn2)c2ccccc21`, for which the MIC turned out to be 0.25 µg/mL (≈ 0.358 µM).

With `CCO/N=C1/C(=O)N(CCCn2cc(CN3CCC[C@@H]4CN(c5c(F)cc6c(=O)c(C(=O)O)cn(C7CC7)c6c5OC)C[C@@H]43)nn2)c2ccc(C)cc21`, the minimal inhibitory concentration (MIC) amounted to 0.25 µg/mL (≈ 0.344 µM).

`CCO/N=C1/C(=O)N(CCCn2cc(CN3CCC[C@@H]4CN(c5c(F)cc6c(=O)c(C(=O)O)cn(C7CC7)c6c5OC)C[C@@H]43)nn2)c2ccc(F)cc21` showed an MIC of 0.12 µg/mL (≈ 0.164 µM).

`CO/N=C1/C(=O)N(CCCn2cc(CN3CCC[C@@H]4CN(c5c(F)cc6c(=O)c(C(=O)O)cn(C7CC7)c6c5OC)C[C@@H]43)nn2)c2ccc(F)cc21` had an MIC of 0.06 µg/mL (≈ 0.0837 µM).

Consider `COc1c(N2C[C@H]3CCCN(Cc4cn(CCCN5C(=O)/C(=N/O)c6cc(C)ccc65)nn4)[C@H]3C2)c(F)cc2c(=O)c(C(=O)O)cn(C3CC3)c12`, for which 2 µg/mL (≈ 2.86 µM) was the least that counted as inhibitory (MIC).

Take `COc1c(N2C[C@H]3CCCN(Cc4cn(CCCN5C(=O)C(=O)c6cc(C)ccc65)nn4)[C@H]3C2)c(F)cc2c(=O)c(C(=O)O)cn(C3CC3)c12`: the MIC came out at 1 µg/mL (≈ 1.46 µM).

On to `CO[C@H]1/C=C/O[C@@]2(C)Oc3c(C)c(O)c4c(O)c(c(/C=N/N5CCN(C)CC5)c(O)c4c3C2=O)NC(=O)/C(C)=C\C=C\[C@H](C)[C@H](O)[C@@H](C)[C@@H](O)[C@@H](C)[C@H](OC(C)=O)[C@@H]1C` [RIFAMPIN], for which the MIC is 32 µg/mL (≈ 38.9 µM).

`COc1c(N2C[C@H]3CCCN(Cc4cn(CCCN5C(=O)/C(=N/O)c6cc(F)ccc65)nn4)[C@H]3C2)c(F)cc2c(=O)c(C(=O)O)cn(C3CC3)c12` showed an MIC of 0.25 µg/mL (≈ 0.356 µM).

As to `COc1c(N2C[C@H]3CCCN(Cc4cn(CCCN5C(=O)C(=O)c6cc(F)ccc65)nn4)[C@H]3C2)c(F)cc2c(=O)c(C(=O)O)cn(C3CC3)c12`, it took 0.25 µg/mL (≈ 0.364 µM) to inhibit growth (MIC).

The values are drawn from ChEMBL document CHEMBL4138241, “Synthesis and in vitro evaluation of novel substituted isatin-propylene-1H-1,2,3-triazole-4-methylene-moxifloxacin hybrids for their anti-mycobacterial activities” (Eur J Med Chem, 2018).
